Laboratory results from patent publication US11442059B2, “Method for treating a chronic itch condition by administering small molecule MrgprX4 antagonists” (The Johns Hopkins University, priority 2017, dated 2022).
Values joined by “and” are separate entries in the source; they are usually repeats but may differ in a detail not shown here. Equal entries are not always repeated. No end group written: not given here.

Tests used:
MRGPRX4 [1] = target: T1, MRGPRX4 (Homo sapiens, UniProt Q96LA9); assay: FLIPR calcium assay (Flexstation3), HEK cells stably expressing MrgprX4; type: cell-based; design: expressed in transfected cells; whole cells or crude membrane fraction; conditions: FLIPR calcium dye, FIG. 18B
T1 sequence (Q96LA9 whole entry): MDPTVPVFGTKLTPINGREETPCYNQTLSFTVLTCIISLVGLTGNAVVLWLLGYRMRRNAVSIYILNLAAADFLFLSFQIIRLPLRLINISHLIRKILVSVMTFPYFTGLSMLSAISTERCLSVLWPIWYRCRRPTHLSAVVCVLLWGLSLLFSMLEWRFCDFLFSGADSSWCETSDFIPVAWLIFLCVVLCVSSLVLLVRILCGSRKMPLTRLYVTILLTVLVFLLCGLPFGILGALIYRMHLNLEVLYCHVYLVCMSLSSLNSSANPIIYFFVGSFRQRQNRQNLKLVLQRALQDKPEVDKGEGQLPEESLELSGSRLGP
Experimental: (§1) EC50s were calculated using HEK cells stably expressing either MrgprA1 or MrgprX4. Cells were loaded with FLIPR calcium imaging dye, and a Flexstation3 machine (Molecular Devices) was used for reading changes in fluorescence. Wells were run in triplicate, and all values from each plate were normalized to the highest responding well. […] The x-axis depicts a modified logarithmic scale. […] FIG. 18B is a graph depicting the EC50 for MrgprX4 for bilirubin is approximately 3 μM.

DRG neurons = assay: Calcium imaging of dissociated DRG neurons; type: cell-based, mouse; conditions: Venn diagram FIG. 30A; Overlap=13
MrgprA1 [2] = target: T2, MrgprA1 (Mus musculus, UniProt Q91WW5); assay: Microscale thermophoresis binding assay, MRGPRA1
T2 construct: expressed in transfected cells; whole cells or crude membrane fraction
T2 sequence (Q91WW5 1-304): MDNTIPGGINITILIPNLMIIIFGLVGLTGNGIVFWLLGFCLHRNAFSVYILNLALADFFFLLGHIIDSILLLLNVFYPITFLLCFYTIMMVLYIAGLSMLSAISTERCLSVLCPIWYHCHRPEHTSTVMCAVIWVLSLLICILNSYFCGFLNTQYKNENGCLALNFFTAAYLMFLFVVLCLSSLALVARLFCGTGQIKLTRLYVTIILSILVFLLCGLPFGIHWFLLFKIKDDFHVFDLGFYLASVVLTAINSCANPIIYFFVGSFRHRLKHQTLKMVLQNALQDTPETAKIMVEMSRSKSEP
Experimental: (§2) Binding isotherms for MRGPRA1, MRGPRX4, and MRGRPC11 towards various ligands were determined by microscale thermophoresis with the NanoTemper monolith NT.115 instrument^27. Ligands were pre-incubated with 10 μM of the GFP-tagged receptor of interest for 5 minutes at room temperature in binding buffer (20 mM Tris and 150 mM NaCl at pH 8.8). Receptors were crudely purified as a membrane fraction from cells stably expressing the receptor^45. Haem metabolites were freshly dissolved in 0.1 M NaOH in dim light and then diluted into assay buffer. Lyophilized BAMS-22 was dissolved in binding buffer. The pH of each ligand was evaluated prior to incubation with a receptor. Samples were loaded into NT.115 Hydrophobic-Treated Capillaries from NanoTemper. Microscale thermophoretic experiments were executed using 20% LED power and 15% MST power. KDs were calculated using the law of mass action with data from three independent experiments. Binding between bilirubin and receptors was evaluated purely thermophoretically, whereas binding between BAMS-22 and MRGPRC11 was evaluated by T-Jump. Samples with dramatic deviations in initial fluorescence were excluded.

MrgprA1 [3] = target: T2, MrgprA1; assay: Fura 2-AM calcium imaging, EC50 and IC50 determinations, MRGPRA1 HEK293 cells; type: cell-based; conditions: HEK293 cells, Fura 2-AM; interval [96, 220]; read-out: EC50 calcium response MRGPRA1
Experimental: (§3) Cells were imaged in calcium imaging buffer (CIB; 10 mM HEPES, 1.2 mM NaHCO3, 130 mM NaCl, 3 mM KCl, 2.5 mM CaCl2, 0.6 mM MgCl2, 20 mM glucose, and 20 mM sucrose at pH 7.4 and 290-300 mOsm). To monitor changes in intracellular [Ca^2+] ([Ca^2+]i), cells were loaded with either Fura 2-AM (HEK293 cells) or Fluo 4-AM (DRG neurons and mast cells) for 30 min in the dark at 37° C. in CIB just prior to imaging. With Fura 2-AM, emission at 510 nm was monitored from excitation at both 340 nm and 380 nm. With Fluo 4-AM, emission at 520 nm was monitored from excitation at 488 nm. Cells were identified as responding if the intracellular [Ca^2+] rose by either 50% compared to baseline or 50% compared to the [Ca^2+]i change assayed during addition of 50 mM KCl (neurons only). Damaged, detached, high-baseline, and motion-activated cells were excluded from analysis.
(§4) In initial screens, HEK293 cells stably expressing the murine G-protein alpha-subunit Gα15, a unique Gα protein that non-selectively couples a large variety of GPCRs to phospholipase C^30, were plated on poly-D-lysine-coated coverslips and transiently transfected with constructs encoding the MRGRPR of interest. 12-24 h later, cells were loaded with the Fura 2-AM. Unless otherwise specified, compounds were perfused into the imaging chamber for approximately thirty seconds after a baseline period was established. Response was then monitored at 5 s intervals for an additional 60 s.
(§5) HEK293 cells stably expressing either MRGPRA1, MRGPRX4, and MRGRPC11 were seeded in poly-D-lysine-coated 96-well plates at 10,000 cells/well. Cells were loaded with Fura 2-AM, washed twice, and maintained in CIB. Haem metabolites were freshly dissolved in DMSO in dim light and then diluted into a buffer comprised of 20 mM Tris and 150 mM NaCl at pH 8.8. Potential changes in pH were evaluated prior to each experiment. EC50 values were determined from dose-responses performed in triplicate, repeated 2-4 times. To determine potential antagonism by QWF against bilirubin, cells were treated with varying doses of QWF for 1 min in CIB prior to application of agonist.

mice = assay: Acute itch behaviour after injection (scratching bouts); type: in vivo, mouse; conditions: bilirubin injection
MRGPRX4 [4] = target: T1, MRGPRX4; assay: Fura 2-AM calcium imaging, EC50 determinations, MRGPRX4 HEK293 cells; type: cell-based; design: expressed in transfected cells; whole cells or crude membrane fraction; conditions: HEK293 cells, Fura 2-AM; interval [44, 87]; read-out: EC50 calcium response MRGPRX4
Experimental: as §3, §4
as §5, with “To determine potential antagonism by QWF against bilirubin, cells were treated with varying doses of QWF for 1 min in CIB prior to application of agonist.” left out

MRGPRX4 [5] = target: T1, MRGPRX4; assay: Microscale thermophoresis binding assay, MRGPRX4; design: expressed in transfected cells; whole cells or crude membrane fraction
Experimental: as §2

MrgprA1 [6] = target: T2, MrgprA1; assay: FLIPR calcium assay (Flexstation3), HEK cells stably expressing MrgprA1; type: cell-based; conditions: HEK cells, FLIPR calcium dye, FIG. 18A
Experimental: as §1

MRGPRX3 = target: T3, MRGPRX3 (Homo sapiens, UniProt Q96LB0); assay: Ca2+ response of HEK cells expressing MRGPRX3; type: cell-based
T3 construct: expressed in transfected cells; host or cells: HEK cells
T3 sequence (Q96LB0 whole entry): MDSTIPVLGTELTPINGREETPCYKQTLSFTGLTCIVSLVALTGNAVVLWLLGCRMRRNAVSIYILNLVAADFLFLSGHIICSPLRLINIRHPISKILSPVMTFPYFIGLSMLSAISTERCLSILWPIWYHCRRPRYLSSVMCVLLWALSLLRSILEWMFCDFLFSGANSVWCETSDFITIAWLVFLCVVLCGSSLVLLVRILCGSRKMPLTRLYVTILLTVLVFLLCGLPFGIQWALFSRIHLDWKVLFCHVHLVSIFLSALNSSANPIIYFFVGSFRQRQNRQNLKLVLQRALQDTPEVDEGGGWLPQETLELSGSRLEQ

human keratinocytes = assay: Ca2+ response of primary human keratinocytes; type: cell-based
[7] = test system: MrgprA1, A4, A12, B3, and B6; assay: Ca2+ response of cells expressing other keratinocyte Mrgprs; type: cell-based, mouse
MrgprA6 = target: T4, MrgprA6 (Mus musculus, UniProt Q91ZC6); assay: Ca2+ response of cells expressing mouse MrgprA6; type: cell-based
T4 construct: expressed in transfected cells; host or cells: HEK293 (transient, pcDNA3.1)
T4 sequence (Q91ZC6 1-301): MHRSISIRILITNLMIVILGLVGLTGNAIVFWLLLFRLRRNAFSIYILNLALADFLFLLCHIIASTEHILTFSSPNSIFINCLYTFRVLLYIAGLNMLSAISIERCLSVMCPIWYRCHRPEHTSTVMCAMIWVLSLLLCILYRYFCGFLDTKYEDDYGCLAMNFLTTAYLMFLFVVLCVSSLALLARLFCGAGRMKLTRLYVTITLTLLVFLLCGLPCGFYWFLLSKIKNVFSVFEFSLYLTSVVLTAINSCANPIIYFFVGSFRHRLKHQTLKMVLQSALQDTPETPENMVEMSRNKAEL

C=CC1=C(C)/C(=C/c2[nH]c(Cc3[nH]c(/C=C4\NC(=O)C(C)=C4C=C)c(C)c3CCC(=O)O)c(CCC(=O)O)c2C)NC1=O [bilirubin, bilirubin IXa]
EC50 (MRGPRX4 [1]): ~3 µM and 2 µM | total neurons activated by the compound alone (DRG neurons): 7 | Kd (MrgprA1 [2]): 92.9 ± 15 µM | EC50 (MrgprA1 [3]): 146 µM | scratching of Cluster−/− animals less than wild type (mice): approximately 75% | EC50 (MRGPRX4 [4]): 61.9 µM | Kd (MRGPRX4 [5]): 54.4 ± 13 µM | EC50 (MrgprA1 [6]): ~49 µM

hBD3: synthetic human Beta-defensin 3, antimicrobial peptide (GIINTLQKYYCRVRGGRCAVLSCLPKEEQIGKCSTRGRKCCRRKK; ends and bridges not checked; cysteine pairing not given here)
Ca2+ response of MRGPRX3 HEK cells (MRGPRX3): robust Ca^2+ response | percentage of keratinocytes that responded (human keratinocytes; primary human keratinocytes after MRGPRX3 siRNA knock down): < 20% | percentage of keratinocytes that responded (human keratinocytes; primary human keratinocytes, control): > 80%

mBD14: mouse Beta-Defensin-14, mouse homologue of hBD3 (FLPKTLRKFFCRIRGGRCAVLNCLGKEEQIGRCSNSGRKCCRKKK; ends and bridges not checked; cysteine pairing not given here)
response of MrgprA1, A4, A12, B3, and B6 [7]: did not show any response | activation of MrgprA6 (MrgprA6): strongly activated
